In the supplement of paper PMC10883282:

What was measured:
Assay in all cases: relative viability vs DMSO control (72 h) (fraction); higher = more viable cells
[1] = system: G401
In short: (§1)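 Sarcoma cell lines in 384-well plates, seeded to reach 80–90% confluence, were given compound after 24 h and kept 72 h at 37 °C, 5% CO2, with 0.1% DMSO vehicle and a 5 µM positive control. Relative viability came from ATPLite as percent growth, averaged over up to triplicate wells. On the rescaled values, 1 equals full and 0 equals none.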

[2] = system: HS729
In short: as §1

[3] = system: SYO-1
In short: as §1

[4] = system: SW872
In short: as §1

[5] = system: VA-ES-BJ
In short: as §1

[6] = system: A204
In short: as §1

[7] = system: SK-ES-1
In short: as §1

[8] = system: SK-LMS-1
In short: as §1

[9] = system: SW684
In short: as §1

[10] = system: MES-SA
In short: as §1

[11] = system: RD
In short: as §1

[12] = system: KHOS-NP
In short: as §1

Cn1cc(C2=C(c3cn(C4CCN(Cc5ccccn5)CC4)c4ccccc34)C(=O)NC2=O)c2ccccc21 [Enzastaurin]
Details	relative viability
[1], 0.00017 µM	1.08
[1], 0.00051 µM	1.1
[1], 0.00152 µM	1.07
[1], 0.00457 µM	1.04
[1], 0.01372 µM	1.05
[1], 0.04115 µM	1.05
[1], 0.1235 µM	1.09
[1], 0.3704 µM	1.06
[1], 1.111 µM	1.13
[1], 3.333 µM	1.21
[1], 10 µM	1.31
[2], 0.00017 µM	1.06
[2], 0.00051 µM	1.09
[2], 0.00152 µM	1.07
[2], 0.00457 µM	1.07
[2], 0.01372 µM	1.05
[2], 0.04115 µM	1.05
[2], 0.1235 µM	1.01
[2], 0.3704 µM	1.02
[2], 1.111 µM	1.06
[2], 3.333 µM	1.13
[2], 10 µM	1.15
[3], 0.00017 µM	1.04
[3], 0.00051 µM	1.016
[3], 0.00152 µM	0.999
[3], 0.00457 µM	0.9983
[3], 0.01372 µM	0.971
[3], 0.04115 µM	0.989
[3], 0.1235 µM	0.959
[3], 0.3704 µM	0.983
[3], 1.111 µM	1.01
[3], 3.333 µM	0.96
[3], 10 µM	0.929
[4], 0.00017 µM	1.07
[4], 0.00051 µM	1.09
[4], 0.00152 µM	1.08
[4], 0.00457 µM	1.06
[4], 0.01372 µM	1.01
[4], 0.04115 µM	1.08
[4], 0.1235 µM	1.04
[4], 0.3704 µM	1.09
[4], 1.111 µM	1.05
[4], 3.333 µM	1.06
[4], 10 µM	0.96
[5], 0.00017 µM	1.08
[5], 0.00051 µM	1.12
[5], 0.00152 µM	1.11
[5], 0.00457 µM	1.09
[5], 0.01372 µM	1.07
[5], 0.04115 µM	1.06
[5], 0.1235 µM	1.06
[5], 0.3704 µM	1.08
[5], 1.111 µM	1.11
[5], 3.333 µM	1.19
[5], 10 µM	1.21
[6], 0.00017 µM	1.07
[6], 0.00051 µM	1.13
[6], 0.00152 µM	1.13
[6], 0.00457 µM	1.12
[6], 0.01372 µM	1.11
[6], 0.04115 µM	1.07
[6], 0.1235 µM	1.07
[6], 0.3704 µM	1.1
[6], 1.111 µM	1.09
[6], 3.333 µM	1.08
[6], 10 µM	0.906
[7], 0.00017 µM	1.09
[7], 0.00051 µM	1.06
[7], 0.00152 µM	1.11
[7], 0.00457 µM	1.08
[7], 0.01372 µM	1.11
[7], 0.04115 µM	1.08
[7], 0.1235 µM	1.08
[7], 0.3704 µM	1.04
[7], 1.111 µM	1.11
[7], 3.333 µM	1.1
[7], 10 µM	0.914
[8], 0.00017 µM	1.08
[8], 0.00051 µM	1.07
[8], 0.00152 µM	1.07
[8], 0.00457 µM	1.04
[8], 0.01372 µM	1.047
[8], 0.04115 µM	1.071
[8], 0.1235 µM	1.05
[8], 0.3704 µM	1.06
[8], 1.111 µM	0.9757
[8], 3.333 µM	0.841
[8], 10 µM	0.746
[9], 0.00017 µM	1.17
[9], 0.00051 µM	1.18
[9], 0.00152 µM	1.22
[9], 0.00457 µM	1.18
[9], 0.01372 µM	1.2
[9], 0.04115 µM	1.17
[9], 0.1235 µM	1.17
[9], 0.3704 µM	1.18
[9], 1.111 µM	1.11
[9], 3.333 µM	0.956
[9], 10 µM	0.944
[10], 0.00017 µM	1.01
[10], 0.00051 µM	0.997
[10], 0.00152 µM	0.994
[10], 0.00457 µM	0.99
[10], 0.01372 µM	0.959
[10], 0.04115 µM	1.003
[10], 0.1235 µM	0.942
[10], 0.3704 µM	0.97
[10], 1.111 µM	0.952
[10], 3.333 µM	0.964
[10], 10 µM	0.659
[11], 0.00017 µM	1.08
[11], 0.00051 µM	1.07
[11], 0.00152 µM	1.08
[11], 0.00457 µM	1.1
[11], 0.01372 µM	1.1
[11], 0.04115 µM	1.09
[11], 0.1235 µM	1.1
[11], 0.3704 µM	1.1
[11], 1.111 µM	1.12
[11], 3.333 µM	1.1
[11], 10 µM	0.978
[12], 0.00017 µM	1.12
[12], 0.00051 µM	1.13
[12], 0.00152 µM	1.12
[12], 0.00457 µM	1.131
[12], 0.01372 µM	1.14
[12], 0.04115 µM	1.12
[12], 0.1235 µM	1.13
[12], 0.3704 µM	1.12
[12], 1.111 µM	1.11
[12], 3.333 µM	1.1
[12], 10 µM	1.1
